{"source": "patent US20130165520A1", "about": "“Hybrid Molecule Having Mixed Retinoic Acid Receptor Agonism and Histone Deacetylase Inhibitory Properties” (priority 2010, published 2013)", "key": {"EKVX": {"tested_on": "EKVX", "test": "cells", "conditions": "Homo sapiens, 48 h"}, "OVCAR-5": {"tested_on": "OVCAR-5", "test": "cells", "conditions": "Homo sapiens, OVCAR-5, 48 h"}, "UACC-257": {"tested_on": "UACC-257", "test": "cells", "conditions": "Homo sapiens, UACC-257, 48 h"}, "RPMI-8226 [1]": {"tested_on": "RPMI-8226", "test": "cells", "conditions": "Homo sapiens, RPMI-8226, 48 h"}, "K-562 [2]": {"tested_on": "K-562", "conditions": "K-562 (Leukemia); 48 h"}, "LOX IMVI [3]": {"tested_on": "LOX IMVI", "test": "cells", "conditions": "Homo sapiens, 48 h"}, "CAKI-1": {"tested_on": "CAKI-1", "conditions": "CAKI-1 (Renal); 48 h"}, "A549/ATCC": {"tested_on": "A549/ATCC", "conditions": "A549/ATCC (Non-Small cell lung cancer); 48 h"}, "HS578T": {"tested_on": "HS578T", "test": "cells", "conditions": "Homo sapiens, Hs-578T, 48 h"}, "K-562 [4]": {"tested_on": "K-562", "test": "cells", "conditions": "Homo sapiens, K562, 48 h"}, "NCI-H522": {"tested_on": "NCI-H522", "conditions": "NCI-H522 (Non-Small cell lung cancer); 48 h"}, "RXF393": {"tested_on": "RXF393", "conditions": "RXF393 (Renal); 48 h"}, "ACHN": {"tested_on": "ACHN", "test": "cells", "conditions": "Homo sapiens, 48 h"}, "[5]": {"tested_on": "RAR target genes in MDA-MB-231 cell line", "test": "RT-qPCR analysis of RAR and HDACi target genes", "format": "cell-based", "source_text": "The agonist activity of 3 through its effects on RAR target genes was subsequently analyzed (FIG. 3)."}, "MDA-MB-468": {"tested_on": "MDA-MB-468", "conditions": "MDA-MB-468 (Breast); 48 h"}, "SF-295": {"tested_on": "SF-295", "conditions": "SF-295 (CNS); 48 h"}, "OVCAR-8": {"tested_on": "OVCAR-8", "conditions": "48 h"}, "NCI/ADR-RES": {"tested_on": "NCI/ADR-RES", "test": "cells", "conditions": "Homo sapiens, 48 h"}, "SW-620 [6]": {"tested_on": "SW-620", "conditions": "SW-620 (Colon); 48 h"}, "HCT-116": {"tested_on": "HCT-116", "test": "cells", "conditions": "Homo sapiens, HCT-116, 48 h"}, "HCT-15": {"tested_on": "HCT-15", "test": "cells", "conditions": "Homo sapiens, HCT-15, 48 h"}, "BT-549": {"tested_on": "BT-549", "conditions": "BT-549 (Breast); 48 h"}, "RPMI-8226 [7]": {"tested_on": "RPMI-8226", "conditions": "RPMI-8226 (Leukemia); 48 h"}, "MDA-MB-435": {"tested_on": "MDA-MB-435", "conditions": "MDA-MB-435 (Melanoma); 48 h"}, "SN12C": {"tested_on": "SN12C", "conditions": "SN12C (Renal); 48 h"}, "HOP-92": {"tested_on": "HOP-92", "test": "cells", "conditions": "Homo sapiens, HOP-92, 48 h"}, "SF-539 [8]": {"tested_on": "SF-539", "conditions": "SF-539 (CNS); 48 h"}, "LOX IMVI [9]": {"tested_on": "LOX IMVI", "conditions": "LOX IMVI (Melanoma); 48 h"}, "NCI-H226": {"tested_on": "NCI-H226", "conditions": "NCI-H226 (Non-Small cell lung cancer); 48 h"}, "SK-OV-3": {"tested_on": "SK-OV-3", "conditions": "48 h"}, "[10]": {"tested_on": "normal human mammary epithelial cells (HMEC)", "test": "Cell growth measurement", "format": "cell-based"}, "SW-620 [11]": {"tested_on": "SW-620", "test": "cells", "conditions": "Homo sapiens, SW-620, 48 h"}, "SF-539 [12]": {"tested_on": "SF-539", "test": "cells", "conditions": "Homo sapiens, SF-539, 48 h"}, "KM12": {"tested_on": "KM12", "test": "cells", "conditions": "Homo sapiens, KM12, 48 h"}}}
{"smiles": "CC1(C)CCC(C)(C)c2cc(-c3ccc4cc(C(=O)NO)ccc4c3)ccc21", "note": "[hybrid 3]", "values": [{"measurement": "GI50", "setting": "EKVX", "value": 0.686, "unit": "µM"}, {"measurement": "CC50", "setting": "EKVX; read-out: LC50", "value": 18.4, "unit": "µM"}, {"measurement": "GI50", "setting": "OVCAR-5", "value": 4.12, "unit": "µM"}, {"measurement": "CC50", "setting": "OVCAR-5; read-out: LC50", "value": 46.1, "unit": "µM"}, {"measurement": "GI50", "setting": "UACC-257", "value": 1.98, "unit": "µM"}, {"measurement": "CC50", "setting": "UACC-257; read-out: LC50", "value": 29.7, "unit": "µM"}, {"measurement": "GI50", "setting": "RPMI-8226 [1]", "value": 0.689, "unit": "µM"}, {"measurement": "CC50", "setting": "RPMI-8226 [1]; read-out: LC50", "value": "> 100", "unit": "µM"}, {"measurement": "TGI", "setting": "K-562 [2]", "value": 1.46, "unit": "µM"}, {"measurement": "GI50", "setting": "LOX IMVI [3]", "value": 0.372, "unit": "µM"}, {"measurement": "CC50", "setting": "LOX IMVI [3]; read-out: LC50", "value": 4.19, "unit": "µM"}, {"measurement": "TGI", "setting": "CAKI-1", "value": 1.03, "unit": "µM"}, {"measurement": "TGI", "setting": "A549/ATCC", "value": 2.15, "unit": "µM"}, {"measurement": "GI50", "setting": "HS578T", "value": 3.02, "unit": "µM"}, {"measurement": "CC50", "setting": "HS578T; read-out: LC50", "value": 64.8, "unit": "µM"}, {"measurement": "GI50", "setting": "K-562 [4]", "value": 0.399, "unit": "µM"}, {"measurement": "CC50", "setting": "K-562 [4]; read-out: LC50", "value": 5.51, "unit": "µM"}, {"measurement": "TGI", "setting": "NCI-H522", "value": 3.59, "unit": "µM"}, {"measurement": "TGI", "setting": "RXF393", "value": 2.82, "unit": "µM"}, {"measurement": "GI50", "setting": "ACHN", "value": 0.393, "unit": "µM"}, {"measurement": "CC50", "setting": "ACHN; read-out: LC50", "value": 5.09, "unit": "µM"}, {"measurement": "regulation of HDACi-regulated genes RARB1 and CyclinD1", "setting": "[5]; MDA-MB-231", "value": "follow similar regulation"}, {"measurement": "induction of RAR target genes (RT-qPCR)", "setting": "[5]; MDA-MB-231 cell line", "value": "clear induction of RARB2 and DHRS3"}, {"measurement": "TGI", "setting": "MDA-MB-468", "value": 2.75, "unit": "µM"}, {"measurement": "TGI", "setting": "SF-295", "value": 1.77, "unit": "µM"}, {"measurement": "TGI", "setting": "OVCAR-8", "value": 1.77, "unit": "µM"}, {"measurement": "GI50", "setting": "NCI/ADR-RES", "value": 0.502, "unit": "µM"}, {"measurement": "CC50", "setting": "NCI/ADR-RES; read-out: LC50", "value": 5.34, "unit": "µM"}, {"measurement": "TGI", "setting": "SW-620 [6]", "value": 1.94, "unit": "µM"}, {"measurement": "GI50", "setting": "HCT-116", "value": 0.424, "unit": "µM"}, {"measurement": "CC50", "setting": "HCT-116; read-out: LC50", "value": 4.03, "unit": "µM"}, {"measurement": "GI50", "setting": "HCT-15", "value": 0.381, "unit": "µM"}, {"measurement": "CC50", "setting": "HCT-15; read-out: LC50", "value": 9.38, "unit": "µM"}, {"measurement": "TGI", "setting": "BT-549", "value": 4.81, "unit": "µM"}, {"measurement": "TGI", "setting": "RPMI-8226 [7]", "value": 4.39, "unit": "µM"}, {"measurement": "TGI", "setting": "MDA-MB-435", "value": 2.54, "unit": "µM"}, {"measurement": "TGI", "setting": "SN12C", "value": 2.37, "unit": "µM"}, {"measurement": "GI50", "setting": "HOP-92", "value": 1.93, "unit": "µM"}, {"measurement": "CC50", "setting": "HOP-92; read-out: LC50", "value": 27.2, "unit": "µM"}, {"measurement": "TGI", "setting": "SF-539 [8]", "value": 7.26, "unit": "µM"}, {"measurement": "TGI", "setting": "LOX IMVI [9]", "value": 1.36, "unit": "µM"}, {"measurement": "TGI", "setting": "NCI-H226", "value": 4.19, "unit": "µM"}, {"measurement": "TGI", "setting": "SK-OV-3", "value": 11.7, "unit": "µM"}, {"measurement": "effect on growth of normal cells", "setting": "[10]", "value": "only minimal effects"}, {"measurement": "GI50", "setting": "SW-620 [11]", "value": 0.626, "unit": "µM"}, {"measurement": "CC50", "setting": "SW-620 [11]; read-out: LC50", "value": 4.85, "unit": "µM"}, {"measurement": "GI50", "setting": "SF-539 [12]", "value": 0.699, "unit": "µM"}, {"measurement": "CC50", "setting": "SF-539 [12]; read-out: LC50", "value": 30.9, "unit": "µM"}, {"measurement": "GI50", "setting": "KM12", "value": 0.616, "unit": "µM"}, {"measurement": "CC50", "setting": "KM12; read-out: LC50", "value": 4.61, "unit": "µM"}]}
